{"source": "patent US20240074996A1", "about": "“C5 KETONE COMPOSITIONS AND RELATED METHODS FOR TREATING METABOLIC DYSFUNCTION” (Keto Innovations, LLC, priority 2018, published 2024)", "origin": "cited, not measured here", "details": "nondiabetic animals; intravenous; doses corresponding to 75% of the energy requirement (Leclerc et al 1995); cited from earlier work", "data": [{"smiles": "CC[C@@H](O)CC(=O)O", "note": "[(R)-B-hydroxypentanoate]", "values": [{"measurement": "Utilisation after intravenous administration", "result": "very rapidly used"}]}]}
